Measured values as given in patent USRE45128E1, “Cephalotaxane derivatives and their processes of preparation and purification” (IVAX International GmbH, priority 1998, dated 2014).

Legend:
[1] = Stability of cephalotaxine in acidic solution; assay type: physicochemical; settings: several days in solution at pH 1-4 at 20° C. (personal observation)
Procedure: This alkaloid is relatively insensitive to basic media. On the other hand, several authors describe a certain level of sensitivity to acids and to quaternization of the nitrogen with methyl iodide, leading to a racemization by simultaneous inversion of the 3 asymmetric centres and of the nitrogen [D. J. Abraham, R. D. Rosensten and E. L. McGandy, Tetrahedron Letters, 4085 (1969)]. However, a period of several days in solution at pH 1-4 at 20° C. leaves this structure intact (personal observation).

[2] = continuous intravenous central infusion (CIVI), patients with CML; cited from earlier work
[3] = tested on: chronic myeloid leukaemias that have become resistant to alpha-interferon; settings: patients suffering from chronic myeloid leukaemias resistant to alpha-interferon; cited from earlier work
[4] = doses twenty times lower than that for Taxol; cited from earlier work

Row | Compound | structure after a period in acidic solution [1] | extra-hematologic toxicity [2] | reinduction of full haematological remissions [3] | daily doses at and above which active [4]
1 | COC1=C[C@]23CCCN2CCc2cc4c(cc2[C@@H]3C1O)OCO4 (single isomer, unassigned; (-)) [cephalotaxine, (−)-cephalotaxine] | intact | – | – | –
2 | COC(=O)C[C@](O)(CCC(C)(C)O)C(=O)O[C@@H]1C(OC)=C[C@]23CCCN2CCc2cc4c(cc2[C@H]13)OCO4 [HA, harringtonine] | – | very mild | – | –
3 | COC(=O)C[C@](O)(CCCC(C)(C)O)C(=O)OC1C(OC)=C[C@]23CCCN2CCc2cc4c(cc2[C@H]13)OCO4 (stereo partly drawn) [HHT, cephalotaxine, 4-methyl (2R)-2-hydroxy-2-(4-hydroxy-4-methylpentyl)butanedioate (ester)] | – | very mild | 70% | ≥ 2.5 mg/m^2 of body area per 24 hours
